Each structure is given as a SMILES string. In brackets after ≈: the same amount, converted by molar mass.

The test system of series [1] is Pseudomonas aeruginosa (NCTC 7244). Nature of the series: MIC in HIB medium by turbidity (Referential Example 2, Table 2). The conditions noted are these: NCTC7244, 18 h, 37° C. The format is cell-based. The procedure:
(§1) The compounds obtained in Synthesis Examples 1 to 4 were tested in the following manner.
(§2) A suspension of Pseudomonas aeruginosa (NCTC 7244) cultivated at 37° C. for 18 hours in a heart infusion broth medium (HIB medium) in a final amount of 10^5, 10^6 and 10^7 cells/ml in an HIB medium containing each of the test compounds which was obtained in the same way as in Referential Example 1 except that the maximum concentration of the test compound was 200 μg/ml. The bacterial strain was cultivated at 37° C. for 18 hours, and the turbidity of the culture broth was evaluated with the naked eye. The minimum concentration of the test compound at which no turbidity was noted was defined as MIC.

Series [2] shares this test system. Nature of the series: Minimum bactericidal concentration (Referential Example 2, Table 2). The format is cell-based. The note with it: NCTC7244, 18 h, subculture on HIA medium. On the procedure:
as §1, §2
The growth of the bacterial strain was evaluated.

A short description of series [3]: Blood level in rats after intramuscular administration (Experimental Example 1, Table 3). In kind it is in vivo. The conditions noted are these: rat, im, 20 mg/kg i.m., serum, read-out: Blood level after administration (average value ± standard deviation); for concentration at 0.25 h: 15 minutes; for concentration at 0.5 h: 30 minutes; for concentration at 1 h: 60 minutes; for concentration at 2 h: 120 minutes. On the procedure:
The compounds of this invention prepared in Synthesis Examples 1 and 2 were each administered intramuscularly to rats, and the concentrations of the compounds in the blood were determined.
Each of the test compounds was intramuscularly injected into the femoral part of rats in a customary manner in a dose of 20 mg/kg for each rat. The blood was drawn by incising the cervical artery and vein at the end of 15 minutes, 30 minutes, 60 minutes, 120 minutes, and 240 minutes after the injection. The separated sera were used for the measurement of the blood level of the test compounds. The concentrations of the test compounds in the sera were determined by a thin-layer cup method using Micrococcus luteus ATCC 9341 as an assay microorganism.

Turning to `Cc1nnc(SCC2=C(C(=O)O)N3C(=O)C(NC(=O)[C@H](NC(=O)c4cnc5c(c4O)C(=O)CCC5)c4ccc(O)cc4)C3SC2)s1` (single isomer, unassigned) [Synthesis Example 2], the MIC in series [1] (10^5 cells/ml inoculated) was 12.5 µg/mL (≈ 18.3 µM); in series [1] (10^6 cells/ml inoculated), 12.5 µg/mL (≈ 18.3 µM); in series [1] (10^7 cells/ml inoculated) it was > 200 µg/mL. Also, the MBC is 12.5 µg/mL (≈ 18.3 µM) in series [2] (10^5 cells/ml inoculated), 12.5 µg/mL (≈ 18.3 µM) in series [2] (10^6 cells/ml inoculated) and > 200 µg/mL in series [2] (10^7 cells/ml inoculated). The concentration at 0.25 h in series [3] amounted to 22800 ± 2600 ng/mL. For the same molecule, the concentration at 0.5 h in series [3] was found to be 16100 ± 3000 ng/mL. Further, in series [3], the concentration at 1 h was 7600 ± 1800 ng/mL. The concentration at 2 h in series [3] was 2500 ± 1200 ng/mL.
As to `CC(=O)OCC1=C(C(=O)O)N2C(=O)C(NC(=O)[C@H](NC(=O)c3cnc4c(c3O)C(=O)CCC4)c3ccc(O)cc3)C2SC1` (single isomer, unassigned) [Synthesis Example 1, 7-[D-(-)-α-(4-hydroxy-5-oxo-5,6,7,8-tetrahydroquinoline-3-carboxamide)-α-(4-hydroxyphenyl)acetamido]-3-acetoxymethyl-Δ^3-cephem-4-carboxylic acid], the MIC amounted to 12.5 µg/mL (≈ 20.5 µM) in series [1] (10^5 cells/ml inoculated), 12.5 µg/mL (≈ 20.5 µM) in series [1] (10^6 cells/ml inoculated) and 25 µg/mL (≈ 40.9 µM) in series [1] (10^7 cells/ml inoculated). The MBC was 12.5 µg/mL (≈ 20.5 µM) in series [2] (10^5 cells/ml inoculated), 25 µg/mL (≈ 40.9 µM) in series [2] (10^6 cells/ml inoculated) and > 200 µg/mL in series [2] (10^7 cells/ml inoculated). Moreover, the concentration at 0.25 h in series [3] turned out to be 14000 ± 2200 ng/mL. Moreover, in series [3], the concentration at 0.5 h came out at 9800 ± 3100 ng/mL. The concentration at 1 h in series [3] was determined as 6800 ± 2200 ng/mL. The concentration at 2 h in series [3] was found to be 2200 ± 1000 ng/mL.

(Values after US4296112A, “Cephalosporins” (Mitsui Toatsu Chemicals, Inc., priority 1979, dated 1981).)
